Measured values published in PMC11851430, “Workflow for E3 Ligase Ligand Validation for PROTAC Development” (ACS Chemical Biology, 2025).

Experiments:
CSNK2A2A = target: T1, CSNK2A2A (Homo sapiens, UniProt P19784); assay: DSF assay; type: binding; details: 20 µM compound
T1 construct: purchased in-house DSF panel (SGC-style construct names; the trailing A/B is a construct suffix)

DMPK1A = target: T2, DMPK1A (Homo sapiens, UniProt Q09013); assay: DSF assay; type: binding; details: 20 µM compound
T2 construct: purchased in-house DSF panel (SGC-style construct names; the trailing A/B is a construct suffix)
T2 sequence (Q09013 1-629): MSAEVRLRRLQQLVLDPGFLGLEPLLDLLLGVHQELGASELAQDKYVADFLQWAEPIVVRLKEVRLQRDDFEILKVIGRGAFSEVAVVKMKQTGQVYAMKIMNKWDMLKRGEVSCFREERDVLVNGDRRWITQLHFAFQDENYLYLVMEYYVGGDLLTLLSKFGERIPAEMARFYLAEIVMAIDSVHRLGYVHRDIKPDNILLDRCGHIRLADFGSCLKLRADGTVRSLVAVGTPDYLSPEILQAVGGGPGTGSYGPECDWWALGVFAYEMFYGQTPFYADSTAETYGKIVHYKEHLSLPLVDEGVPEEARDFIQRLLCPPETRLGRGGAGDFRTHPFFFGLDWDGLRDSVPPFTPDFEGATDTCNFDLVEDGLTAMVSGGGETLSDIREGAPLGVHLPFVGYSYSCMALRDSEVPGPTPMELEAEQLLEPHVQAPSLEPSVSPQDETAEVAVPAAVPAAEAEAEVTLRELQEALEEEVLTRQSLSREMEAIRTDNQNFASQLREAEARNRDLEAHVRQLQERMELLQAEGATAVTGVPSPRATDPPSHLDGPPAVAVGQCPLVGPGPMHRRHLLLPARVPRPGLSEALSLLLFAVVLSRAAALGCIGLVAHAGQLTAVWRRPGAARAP

TTK1A = target: T3, TTK1A (Homo sapiens, UniProt P33981); assay: DSF assay; type: binding; details: 20 µM compound
T3 construct: purchased in-house DSF panel (SGC-style construct names; the trailing A/B is a construct suffix)
T3 sequence (P33981 519-808): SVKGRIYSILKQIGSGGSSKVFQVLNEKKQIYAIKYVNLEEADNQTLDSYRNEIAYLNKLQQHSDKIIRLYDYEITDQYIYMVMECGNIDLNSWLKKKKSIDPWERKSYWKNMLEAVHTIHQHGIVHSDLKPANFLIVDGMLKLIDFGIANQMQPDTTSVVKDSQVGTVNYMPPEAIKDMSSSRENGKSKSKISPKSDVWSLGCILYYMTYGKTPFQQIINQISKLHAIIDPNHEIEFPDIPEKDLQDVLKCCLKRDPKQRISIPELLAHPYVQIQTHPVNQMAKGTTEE

[1] = tested on: kinase protein levels in MCF-7 cells; assay: TMT-labeled quantitative proteomics; type: cell-based, human
[2] = target: T4, kinase protein levels in MCF-7 cells (Homo sapiens, UniProt A0A096LP01); assay: TMT-labeled quantitative proteomics; type: cell-based; details: protein LINC00493
T4 construct: endogenous in cells; host or cells: MCF-7
T4 sequence (A0A096LP01 whole entry): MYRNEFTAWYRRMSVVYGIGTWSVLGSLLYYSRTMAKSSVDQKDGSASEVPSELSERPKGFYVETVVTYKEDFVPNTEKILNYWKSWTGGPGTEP

T1 sequence (P19784 whole entry): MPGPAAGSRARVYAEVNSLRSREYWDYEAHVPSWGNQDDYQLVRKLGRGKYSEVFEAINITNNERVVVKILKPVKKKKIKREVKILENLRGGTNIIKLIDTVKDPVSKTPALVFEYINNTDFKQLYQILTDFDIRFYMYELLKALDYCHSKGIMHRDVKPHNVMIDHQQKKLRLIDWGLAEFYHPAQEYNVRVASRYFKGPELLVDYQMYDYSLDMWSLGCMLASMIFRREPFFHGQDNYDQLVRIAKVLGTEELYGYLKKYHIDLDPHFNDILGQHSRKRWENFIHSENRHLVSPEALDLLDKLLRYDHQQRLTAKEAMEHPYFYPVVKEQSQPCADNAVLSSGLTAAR

## CCOC(=O)c1cc(Nc2cc(C3CC3)[nH]n2)nc(Nc2ccc(CC#N)cc2)n1 [compound 5]
CSNK2A2A
  ΔTm at 20 µM: 7.92 °C
DMPK1A
  ΔTm at 20 µM: 3.8 °C
TTK1A
  ΔTm at 20 µM: 4.46 °C
[1]; MCF-7 cells, 0.25 μM, 6 h
  kinase downregulation profile compared with Jurkat cells: comparable downregulation profiles
[1]; protein NBPF19;NBPF8;NBPF10;NBPF15;NBPF26;NBPF14;NBPF1;NBPF12, MCF, 0.25µM, set4
  log2FC (compound/DMSO): 0.03286
[1]; protein NBPF19;NBPF8;NBPF26;NBPF14;NBPF12;NBPF10;NBPF15;NBPF1, MCF7, 2.5 µM, set3
  log2FC (compound/DMSO): -0.1342
[1]; protein NUDT4;NUDT11;NUDT10, MCF, 0.25µM, set4
  log2FC (compound/DMSO): 0.03432
[1]; protein UQCRHL;UQCRH, MCF, 0.25µM, set4
  log2FC (compound/DMSO): 0.1631
[2]; MCF7, 2.5 µM, set3
  P.Value (compound/DMSO): 0.03457
  log2FC (compound/DMSO): -0.4501
[2]; MCF, 0.25µM, set4
  P.Value (compound/DMSO): 0.002655
  log2FC (compound/DMSO): 0.2815
